{"source": "patent US10807944B2", "about": "“HDAC inhibitor compounds and methods of treatment” (priority 2014, dated 2020)", "tested_on": "MDA-MB-231 cells", "test": "Global gene expression (Affymetrix Human Transcriptome Array 2.0) with Ingenuity Pathway Analysis", "assay_type": "cell-based", "conditions": "24 h; for Predicated activation state, Biological Functions / Predicated activation state, Upstream Regulators: 1 μM"}
{"smiles": "CCCCNNC(=O)c1ccc(Br)cc1", "note": "[UF010, 4-bromo-N′-butylbenzohydrazide]", "values": [{"measurement": "Predicated activation state, Biological Functions", "setting": "Apoptosis", "value": "Activated"}, {"measurement": "Predicated activation state, Upstream Regulators", "setting": "Butyric acid", "value": "Activated"}, {"measurement": "Predicated activation state, Biological Functions", "setting": "Cell cycle progression", "value": "Suppressed"}, {"measurement": "Predicated activation state, Biological Functions", "setting": "Cell survival", "value": "Suppressed"}, {"measurement": "Predicated activation state, Upstream Regulators", "setting": "Cisplatin", "value": "Activated"}, {"measurement": "Predicated activation state, Upstream Regulators", "setting": "ERK1/2", "value": "Activated"}, {"measurement": "Predicated activation state, Upstream Regulators", "setting": "HDAC1", "value": "Suppressed"}, {"measurement": "Predicated activation state, Upstream Regulators", "setting": "HDAC2", "value": "Suppressed"}, {"measurement": "Predicated activation state, Upstream Regulators", "setting": "KRAS", "value": "Suppressed"}, {"measurement": "number of genes downregulated by […]", "setting": "MDA-MB-231, 1 μM", "value": 68}, {"measurement": "number of genes upregulated by […]", "setting": "MDA-MB-231, 1 μM", "value": 115}, {"measurement": "Predicated activation state, Upstream Regulators", "setting": "MYCN", "value": "Suppressed"}, {"measurement": "Predicated activation state, Upstream Regulators", "setting": "Myc", "value": "Suppressed"}, {"measurement": "Predicated activation state, Biological Functions", "setting": "Necrosis", "value": "Activated"}, {"measurement": "Predicated activation state, Biological Functions", "setting": "Proliferation of cells", "value": "Suppressed"}, {"measurement": "Predicated activation state, Upstream Regulators", "setting": "Rb1", "value": "Activated"}, {"measurement": "Predicated activation state, Biological Functions", "setting": "Repair of DNA", "value": "Suppressed"}, {"measurement": "Predicated activation state, Upstream Regulators", "setting": "Romidepsin", "value": "Activated"}, {"measurement": "Predicated activation state, Upstream Regulators", "setting": "TP53", "value": "Activated"}, {"measurement": "Predicated activation state, Biological Functions", "setting": "Transcription of RNA", "value": "Suppressed"}, {"measurement": "Predicated activation state, Upstream Regulators", "setting": "Tributyrin (butyrate)", "value": "Activated"}, {"measurement": "Predicated activation state, Upstream Regulators", "setting": "Trichostatin A", "value": "Activated"}, {"measurement": "Predicated activation state, Upstream Regulators", "setting": "fulvestrant", "value": "Activated"}]}
